The data set is described as follows: Accelerated aging stability study at 40° C. for eleven days (impurities by HPLC, USP35). The note with it: in the liquid pharmaceutical composition throughout 11 days of accelerated aging at 40° C. Type of data set: physicochemical. Here is the method:
A liquid pharmaceutical composition as described above, comprising ˜10 mg/mL docetaxel was diluted and subjected to accelerated aging at 40° C. for eleven days. The levels of impurities as specified by USP35 (United States Pharmacopeia 35) for taxane compositions were analyzed by HPLC at regular intervals. Stability was tested at 6 hours on day 0. Impurity levels in the liquid pharmaceutical compositions were compared to the allowable level according to the USP35 standard.

Concentration of docetaxel data for one molecule are collected here from patent US10398785B2, “Pharmaceutical compositions containing taxane-cyclodextrin complexes, method of making and methods of use” (MERIDIAN LAB, priority 2015, dated 2019).

Molecule `CC(=O)O[C@@]12CO[C@@H]1C[C@H](O)[C@@]1(C)C(=O)[C@H](O)C3=C(C)[C@@H](OC(=O)[C@H](O)[C@@H](NC(=O)OC(C)(C)C)c4ccccc4)C[C@@](O)([C@@H](OC(=O)c4ccccc4)[C@H]21)C3(C)C` [docetaxel] displayed a Concentration of docetaxel of 9520 µg/mL.
